We go through 2 molecules from ChEMBL document CHEMBL1136317, “A general synthesis of 1-aryl carbamoyl-2-alkyl-4-aryl substituted semicarbazides as nonbasic factor Xa inhibitors” (Bioorg Med Chem Lett, 2003).

Usually IC50 stands for the concentration at which inhibition is half-maximal.

In this assay the target is Coagulation factor X (Homo sapiens, UniProt P00742). The experiment in a line: Inhibitory activity against human Coagulation factor X in a purified enzyme system.
Coagulation factor X, sequence (P00742 41-179 limits assumed): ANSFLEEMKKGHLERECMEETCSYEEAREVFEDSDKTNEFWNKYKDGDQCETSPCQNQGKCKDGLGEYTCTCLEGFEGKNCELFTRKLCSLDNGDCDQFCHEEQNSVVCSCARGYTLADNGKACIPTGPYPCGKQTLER
Coagulation factor X, sequence (P00742 235-488 limits assumed): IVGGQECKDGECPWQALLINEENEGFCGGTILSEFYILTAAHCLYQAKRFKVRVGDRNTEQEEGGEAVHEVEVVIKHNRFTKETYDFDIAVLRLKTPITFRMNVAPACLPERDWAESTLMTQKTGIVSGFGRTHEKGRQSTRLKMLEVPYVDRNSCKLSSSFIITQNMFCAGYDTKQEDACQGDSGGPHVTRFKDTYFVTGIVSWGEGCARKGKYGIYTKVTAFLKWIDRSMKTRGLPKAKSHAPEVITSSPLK

As to `CCC(NC(=O)Nc1ccc(Cl)cc1)C(=O)Nc1ccc(N2CCOCC2=O)cc1` (single isomer, unassigned), the half-maximal inhibitory concentration (IC50) is 17 nM.

On to `CC(NC(=O)Nc1ccc(Cl)cc1)C(=O)Nc1ccc(N2CCOCC2=O)cc1` (single isomer, unassigned), for which inhibition was half-maximal at 78 nM (IC50).
